Data on eleven compounds can be found in patent publication US5220059A, “Lipoxygenase-inhibiting compounds derived from non-steroidal antiinflammatory carboxylic acids” (Abbott Laboratories, priority 1990, dated 1993).

A value given as a limit tells only on which side of the number the result lay.

One test addresses T1, 5-lipoxygenase (Rattus norvegicus, UniProt P12527).
T1 construct: 20,000xg supernatant from homogenized RBL-1 cells; endogenous in cells; host or cells: RBL-1 cells (20,000xg supernatant of homogenate)
T1 sequence (P12527 1-673): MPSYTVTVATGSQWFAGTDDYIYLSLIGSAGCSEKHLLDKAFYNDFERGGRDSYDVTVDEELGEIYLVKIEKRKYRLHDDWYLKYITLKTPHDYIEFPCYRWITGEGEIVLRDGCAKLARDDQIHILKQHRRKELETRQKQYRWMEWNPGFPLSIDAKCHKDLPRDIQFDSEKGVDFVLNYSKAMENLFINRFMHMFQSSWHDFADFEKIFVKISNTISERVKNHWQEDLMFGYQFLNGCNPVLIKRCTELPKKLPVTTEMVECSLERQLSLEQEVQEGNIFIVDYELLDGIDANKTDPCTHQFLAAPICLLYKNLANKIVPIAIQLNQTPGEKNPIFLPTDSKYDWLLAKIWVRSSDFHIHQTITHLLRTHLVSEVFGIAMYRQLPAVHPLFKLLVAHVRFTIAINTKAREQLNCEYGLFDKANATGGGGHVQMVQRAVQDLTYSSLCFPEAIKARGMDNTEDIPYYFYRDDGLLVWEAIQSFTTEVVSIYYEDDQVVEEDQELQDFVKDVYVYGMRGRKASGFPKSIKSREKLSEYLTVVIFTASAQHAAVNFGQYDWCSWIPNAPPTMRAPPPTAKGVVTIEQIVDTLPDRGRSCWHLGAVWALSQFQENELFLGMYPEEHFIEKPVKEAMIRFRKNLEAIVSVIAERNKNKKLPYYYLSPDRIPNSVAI
Briefly: In vitro inhibition of 5-lipoxygenase (20,000xg supernatant from homogenized RBL-1 cells). Type of test: biochemical. Conditions: read-out: IC50 (concentrations producing 50% enzyme inhibition). The protocol:
The In vitro effect of the compounds of the present invention on 5-lipoxygenase activity was evaluated using the 20,000xg supernatant from homogenized RBL-1 cells in a manner similar to that described by Dyer and coworkers in Fed. Proc., Fed. Am. Soc. Exp. Biol. 43:[…] (1984). IC50 values (i.e., concentrations of the compounds producing 50% enzyme inhibition) were calculated by linear regression analysis of percentage inhibition versus log inhibitor concentration plots.

A further test relates to leukotriene biosynthesis. Briefly: In vivo inhibition of leukotriene biosynthesis, rat peritoneal anaphylaxis model. Conditions: 200 μmol/kg PO (gavage) one hour prior to antigen challenge, peritoneal fluids collected 15 minutes after challenge. The protocol:
The in vivo inhibition of leukotriene biosynthesis by the compounds of the present invention was evaluated in the following manner. The effect of the compounds after oral administration was determined using a rat peritoneal anaphylaxis model in a manner similar to that described by Young and coworkers in Fed. Proc., Fed. Am. Soc. Exp. Biol. 44:1185 (1985). According to this model rats were injected intraperitoneally (IP) with rabbit antibody to bovine serum albumin (BSA) and three hours later injected IP with BSA to induce an antigen-antibody response. Rats were sacrificed 15 minutes after this challenge and the peritoneal fluids were collected and analyzed for leukotriene levels. Test compounds were administered by gavage (PO) one hour prior to the antigen challenge. Percent inhibition values were determined by comparing the treatment group to the mean of the control group.

Turning to `CNC(=O)N(O)C(C)c1ccc(CC(C)C)cc1` (stereo not drawn) [Example 3, N'-methyl-N-hydroxy-N-1-(4-(2'-methylpropyl)phenyl)ethyl urea], the IC50 on 5-lipoxygenase turned out to be 0.7 µM. Also, the “In vivo Inhibition of Leukotriene Biosynthesis” value (“In vivo Inhibition” for short) with leukotriene biosynthesis came out at 39%.

As for `COc1ccc2c(c1)c(CCN(O)C(N)=O)c(C)n2C(=O)c1ccc(Cl)cc1` [Example 16, N-hydroxy-N-[2-(N-(4-chlorobenzoyl)-5-methoxy-2-methyl-[1H]-indol-3-yl)ethyl] urea], the IC50 at 5-lipoxygenase is 0.4 µM.

For `CC(C)Cc1ccc(C(C)N(O)C(N)=S)cc1` (stereo not drawn) [Example 29, N-hydroxy-N-[1-(4-(2'-methylpropyl)phenyl)ethyl] thiourea], the IC50 on 5-lipoxygenase was < 0.4 µM.

In the case of `CNC(=O)N(O)C(C)c1ccc2cc(OC)ccc2c1` (stereo not drawn) [Example 4, N'-methyl-N-hydroxy-N-1-(6-methoxynaphthalen-2-yl)ethyl urea], the IC50 at 5-lipoxygenase was 0.6 µM.

For `CNC(=O)N(O)CCc1c(C)n(C(=O)c2ccc(Cl)cc2)c2ccc(OC)cc12` [Example 32, N-hydroxy-N-[2-(N-(4-chlorobenzoyl)-5-methoxy-2-methyl-[1H]-indol-3-yl)ethyl]-N'-methyl urea], the IC50 on 5-lipoxygenase was found to be 0.2 µM. In addition, in the test on leukotriene biosynthesis, the “In vivo Inhibition” value is reported as 42%.

Consider `COc1ccc2cc(C(C)N(O)C(C)=O)ccc2c1` (stereo not drawn) [Example 5, N-hydroxy-N-1-(6-methoxynaphthalen-2-yl)ethyl acetamide], for which the IC50 on 5-lipoxygenase is 0.7 µM. Besides, the “In vivo Inhibition” value in the test on leukotriene biosynthesis is 62%.

`CC(C)Cc1ccc(C(C)N(O)C(N)=O)cc1` (stereo not drawn) [Example 1, N-hydroxy-N-[1-(4-(2'-methylpropyl)phenyl)ethyl]urea]: the IC50 at 5-lipoxygenase worked out at 0.64 µM.

Regarding `CC(C)Cc1ccc(C(C)CN(O)C(N)=O)cc1` (stereo not drawn) [Example 17, N-hydroxy-N-[2-(4-(2-methylpropyl)phenyl)propyl] urea], the IC50 at 5-lipoxygenase was 0.2 µM.

`CCSC(=O)N(O)C(C)c1ccc(CC(C)C)cc1` (stereo not drawn) [Example 31, N-hydroxy-N-[1-(4-(2'-methylpropyl)phenyl)ethyl] thioethylcarbamate]: at 5-lipoxygenase, the IC50 turned out to be 0.2 µM.

In the case of `CCOC(=O)N(O)C(C)c1ccc(CC(C)C)cc1` (stereo not drawn) [Example 30, N-hydroxy-N-[1-(4-(2'-methylpropyl)phenyl)ethyl] ethoxycarbamate], the IC50 on 5-lipoxygenase is < 0.4 µM.

`COc1ccc2cc(C(C)N(O)C(N)=O)ccc2c1` (stereo not drawn) [Example 2, N-hydroxy-N-1-(6-methoxynaphthalen-2-yl)ethyl urea]: the IC50 at 5-lipoxygenase was 0.43 µM. Further, the “In vivo Inhibition” value in the test with leukotriene biosynthesis is given as 66%.
